For ten molecules, mass density, speed of sound and refractive index results are on record in the NIST ThermoML archive (doi:10.1007/s10765-005-8102-9).

± gives the expanded uncertainty stated by the source.

The conditions of data set [1]: 303.15 K; 101 kPa; Liquid.
A short description of data set [2]: refractive index (Na D-line) (dimensionless). Particulars: 303.15 K; 101.33 kPa; Liquid.
The nature of data set [3]: refractive index (Na D-line) (dimensionless); xn = mol fraction of the nth substance listed. To be noted: 303.15 K, 101 kPa, Liquid.
Data set [4] can be described thus: xn = mol fraction of the nth substance listed. Particulars: 303.15 K, 101 kPa, Liquid.

The mass density is mass per unit of volume. Usually speed of sound stands for how fast a sound wave travels through the sample. By refractive index is commonly meant a measure of how strongly the sample bends light. On to `CCCCO` [butan-1-ol], for which, in data set [1], the mass density stood at 802 ± 0.8 kg/m3 and the speed of sound came out at 1231 ± 4.7 m/s. The refractive index in data set [2] is listed as 1.3946 ± 0.0007.

Regarding `CCCCO` [butan-1-ol] + C[S+](C)[O-], the refractive index in data set [3] (x2 = 0) turned out to be 1.3946 ± 0.0007. For the same molecule, in data set [4] (x2 = 0), the mass density is reported as 802 ± 0.8 kg/m3 and the speed of sound is listed as 1231 ± 4.7 m/s.

Turning to `C[S+](C)[O-]` [dimethyl sulfoxide], in data set [1], the mass density came out at 1094.9 ± 1.3 kg/m3 and the speed of sound is given as 1490.9 ± 5 m/s. Also, in data set [2], the refractive index came out at 1.4751 ± 0.0007.

As for `C[S+](C)[O-]` [dimethyl sulfoxide] + CCCCCCCO, the refractive index in data set [3] (x1 = 1) worked out at 1.4751 ± 0.0007. In addition, in data set [4] (x1 = 1), the mass density worked out at 1094.9 ± 1.3 kg/m3 and the speed of sound is recorded as 1490.9 ± 7 m/s.

Take `C[S+](C)[O-]` [dimethyl sulfoxide] + CCCCCCO: the refractive index in data set [3] (x1 = 1) is listed as 1.4751 ± 0.0007. In data set [4] (x1 = 1), the mass density worked out at 1094.9 ± 2.4 kg/m3 and the speed of sound came to 1490.9 ± 7 m/s.

In the case of `C[S+](C)[O-]` [dimethyl sulfoxide] + CCCCO, the refractive index in data set [3] (x1 = 0.1034) turned out to be 1.4001 ± 0.0007; in data set [3] (x1 = 0.2122) it was 1.4064 ± 0.0007; in data set [3] (x1 = 0.3156), 1.4127 ± 0.0007; in data set [3] (x1 = 0.4009), 1.4185 ± 0.0007; in data set [3] (x1 = 0.5073), 1.4263 ± 0.0007; in data set [3] (x1 = 0.6002) it was 1.4335 ± 0.0007. Also, the refractive index in data set [3] (x1 = 0.6957) was 1.4417 ± 0.0007; in data set [3] (x1 = 0.8112) it was 1.4527 ± 0.0007; in data set [3] (x1 = 0.9051), 1.4633 ± 0.0007; in data set [3] (x1 = 1), 1.4751 ± 0.0007. The mass density came out at 825.7 ± 0.8 kg/m3 in data set [4] (x1 = 0.1034); 851.8 ± 0.9 kg/m3 in data set [4] (x1 = 0.2122); 877.9 ± 0.9 kg/m3 in data set [4] (x1 = 0.3156); 900.5 ± 1 kg/m3 in data set [4] (x1 = 0.4009); 930.1 ± 1 kg/m3 in data set [4] (x1 = 0.5073); 957.2 ± 1 kg/m3 in data set [4] (x1 = 0.6002). The mass density in data set [4] (x1 = 0.6957) amounted to 986.6 ± 1.1 kg/m3; in data set [4] (x1 = 0.8112), 1024.6 ± 1.2 kg/m3; in data set [4] (x1 = 0.9051), 1058.4 ± 1.2 kg/m3; in data set [4] (x1 = 1), 1094.9 ± 1.3 kg/m3. Moreover, the speed of sound is listed as 1247.5 ± 4.7 m/s in data set [4] (x1 = 0.1034); 1267.5 ± 4.8 m/s in data set [4] (x1 = 0.2122); 1288 ± 4.8 m/s in data set [4] (x1 = 0.3156); 1305.5 ± 4.8 m/s in data set [4] (x1 = 0.4009); 1327.3 ± 4.8 m/s in data set [4] (x1 = 0.5073); 1347.5 ± 4.8 m/s in data set [4] (x1 = 0.6002). Besides, the speed of sound in data set [4] (x1 = 0.6957) came out at 1371 ± 4.9 m/s; in data set [4] (x1 = 0.8112), 1406.6 ± 4.9 m/s; in data set [4] (x1 = 0.9051), 1443 ± 5 m/s; in data set [4] (x1 = 1) it was 1490.9 ± 5 m/s.

Take `CCCCCCCO` [heptan-1-ol]: in data set [1], the mass density came to 815.7 ± 0.9 kg/m3 and the speed of sound worked out at 1306 ± 6.6 m/s. In addition, in data set [2], the refractive index is 1.4201 ± 0.0007.

On to `CCCCCCCO` [heptan-1-ol] + C[S+](C)[O-], for which the refractive index in data set [3] (x2 = 0) worked out at 1.4201 ± 0.0007; in data set [3] (x2 = 0.1096), 1.4209 ± 0.0007; in data set [3] (x2 = 0.2535), 1.4242 ± 0.0007; in data set [3] (x2 = 0.3668), 1.4277 ± 0.0007; in data set [3] (x2 = 0.474) it was 1.4312 ± 0.0007; in data set [3] (x2 = 0.5788), 1.4355 ± 0.0007. Moreover, the refractive index in data set [3] (x2 = 0.6708) turned out to be 1.4402 ± 0.0007; in data set [3] (x2 = 0.7598), 1.4458 ± 0.0007; in data set [3] (x2 = 0.8376) it was 1.4528 ± 0.0007; in data set [3] (x2 = 0.9031), 1.4615 ± 0.0007. For the same molecule, the mass density in data set [4] (x2 = 0) was found to be 815.7 ± 0.9 kg/m3; in data set [4] (x2 = 0.1096), 825.7 ± 0.9 kg/m3; in data set [4] (x2 = 0.2535) it was 846 ± 0.9 kg/m3; in data set [4] (x2 = 0.3668), 866.8 ± 1 kg/m3; in data set [4] (x2 = 0.474), 889.4 ± 1 kg/m3; in data set [4] (x2 = 0.5788) it was 915.8 ± 1 kg/m3. Moreover, the mass density in data set [4] (x2 = 0.6708) is reported as 943.2 ± 1.1 kg/m3; in data set [4] (x2 = 0.7598), 973.2 ± 1.1 kg/m3; in data set [4] (x2 = 0.8376) it was 1003.5 ± 1.2 kg/m3; in data set [4] (x2 = 0.9031), 1034.5 ± 1.2 kg/m3. In addition, the speed of sound in data set [4] (x2 = 0) was found to be 1306 ± 6.6 m/s; in data set [4] (x2 = 0.1096) it was 1312.3 ± 6.6 m/s; in data set [4] (x2 = 0.2535) it was 1319.5 ± 6.6 m/s; in data set [4] (x2 = 0.3668), 1329.9 ± 6.6 m/s; in data set [4] (x2 = 0.474), 1338 ± 6.6 m/s; in data set [4] (x2 = 0.5788), 1351.5 ± 6.7 m/s. Besides, the speed of sound in data set [4] (x2 = 0.6708) is reported as 1369 ± 6.7 m/s; in data set [4] (x2 = 0.7598), 1384.6 ± 6.7 m/s; in data set [4] (x2 = 0.8376), 1409.3 ± 6.8 m/s; in data set [4] (x2 = 0.9031), 1428.6 ± 6.8 m/s.

For `CCCCCCO` [hexan-1-ol], in data set [1], the mass density is listed as 811.8 ± 1.8 kg/m3 and the speed of sound came out at 1282 ± 6.7 m/s. In data set [2], the refractive index amounted to 1.4134 ± 0.0008.

For `CCCCCCO` [hexan-1-ol] + C[S+](C)[O-], the refractive index in data set [3] (x2 = 0) is 1.4134 ± 0.0008; in data set [3] (x2 = 0.1336), 1.4149 ± 0.0008; in data set [3] (x2 = 0.2712) it was 1.4185 ± 0.0008; in data set [3] (x2 = 0.3808) it was 1.4216 ± 0.0008; in data set [3] (x2 = 0.4814), 1.4259 ± 0.0008; in data set [3] (x2 = 0.5762) it was 1.4311 ± 0.0008. Further, the refractive index in data set [3] (x2 = 0.666) is recorded as 1.4372 ± 0.0007; in data set [3] (x2 = 0.765), 1.4448 ± 0.0007; in data set [3] (x2 = 0.848) it was 1.4535 ± 0.0007; in data set [3] (x2 = 0.9246), 1.4629 ± 0.0007. Moreover, the mass density is listed as 811.8 ± 1.8 kg/m3 in data set [4] (x2 = 0); 832.6 ± 1.8 kg/m3 in data set [4] (x2 = 0.1336); 857.6 ± 1.9 kg/m3 in data set [4] (x2 = 0.2712); 880.7 ± 1.9 kg/m3 in data set [4] (x2 = 0.3808); 904.6 ± 1.9 kg/m3 in data set [4] (x2 = 0.4814); 929.7 ± 2 kg/m3 in data set [4] (x2 = 0.5762). The mass density in data set [4] (x2 = 0.666) is recorded as 956.3 ± 2 kg/m3; in data set [4] (x2 = 0.765) it was 989.2 ± 2.1 kg/m3; in data set [4] (x2 = 0.848), 1021.1 ± 2.2 kg/m3; in data set [4] (x2 = 0.9246), 1054.7 ± 2.3 kg/m3. Besides, the speed of sound came out at 1282 ± 6.7 m/s in data set [4] (x2 = 0); 1300.8 ± 6.7 m/s in data set [4] (x2 = 0.1336); 1311.6 ± 6.7 m/s in data set [4] (x2 = 0.2712); 1325.3 ± 6.7 m/s in data set [4] (x2 = 0.3808); 1336.5 ± 6.7 m/s in data set [4] (x2 = 0.4814); 1349.5 ± 6.7 m/s in data set [4] (x2 = 0.5762). For the same molecule, the speed of sound in data set [4] (x2 = 0.666) came out at 1368 ± 6.8 m/s; in data set [4] (x2 = 0.765), 1395 ± 6.8 m/s; in data set [4] (x2 = 0.848), 1420.5 ± 6.8 m/s; in data set [4] (x2 = 0.9246), 1448.5 ± 6.9 m/s.
